# According to ChEMBL document CHEMBL3991601, “The target landscape of clinical kinase drugs” (Science, 2017):
# Active and inactive are the calls of the source. For most assays here, no stated cut-off is given here; in the data, actives have a measured Kd and inactives only a lower limit.
# How the values were obtained:
# [1] = molecular target: TRAF2 and NCK-interacting protein kinase (Homo sapiens, UniProt Q9UKE5)
# [2] = molecular target: T1, Serine/threonine-protein kinase Nek9 (Homo sapiens, UniProt Q8TD19)
# T1 sequence (Q8TD19 whole entry): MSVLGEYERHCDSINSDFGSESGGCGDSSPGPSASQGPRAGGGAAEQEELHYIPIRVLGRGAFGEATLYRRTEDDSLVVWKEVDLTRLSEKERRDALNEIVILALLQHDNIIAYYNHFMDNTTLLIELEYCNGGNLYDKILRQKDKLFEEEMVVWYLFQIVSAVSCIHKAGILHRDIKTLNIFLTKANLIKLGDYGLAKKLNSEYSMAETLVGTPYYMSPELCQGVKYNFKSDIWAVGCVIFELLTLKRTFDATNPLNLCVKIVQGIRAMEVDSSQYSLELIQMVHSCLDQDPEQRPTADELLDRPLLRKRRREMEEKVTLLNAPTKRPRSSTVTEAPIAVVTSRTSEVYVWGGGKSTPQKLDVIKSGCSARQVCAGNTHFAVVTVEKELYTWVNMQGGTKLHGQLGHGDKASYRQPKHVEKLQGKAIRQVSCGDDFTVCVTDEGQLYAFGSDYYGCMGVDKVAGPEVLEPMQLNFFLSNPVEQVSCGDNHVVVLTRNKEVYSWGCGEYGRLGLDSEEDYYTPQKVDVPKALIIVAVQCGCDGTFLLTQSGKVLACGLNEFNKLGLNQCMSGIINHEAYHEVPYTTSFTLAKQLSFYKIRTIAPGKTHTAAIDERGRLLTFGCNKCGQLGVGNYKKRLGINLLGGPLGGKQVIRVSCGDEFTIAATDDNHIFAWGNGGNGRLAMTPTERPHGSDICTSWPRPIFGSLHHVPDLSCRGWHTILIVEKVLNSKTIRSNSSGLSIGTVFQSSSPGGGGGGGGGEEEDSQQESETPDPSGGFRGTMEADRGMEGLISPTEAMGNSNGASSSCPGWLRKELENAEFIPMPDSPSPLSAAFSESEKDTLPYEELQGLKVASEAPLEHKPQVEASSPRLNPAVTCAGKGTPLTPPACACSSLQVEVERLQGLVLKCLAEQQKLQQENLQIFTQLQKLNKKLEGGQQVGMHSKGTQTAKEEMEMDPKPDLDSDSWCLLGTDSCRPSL
# [3] = molecular target: T2, Mitogen-activated protein kinase kinase kinase 3 (Homo sapiens, UniProt Q99759)
# T2 sequence (Q99759 whole entry): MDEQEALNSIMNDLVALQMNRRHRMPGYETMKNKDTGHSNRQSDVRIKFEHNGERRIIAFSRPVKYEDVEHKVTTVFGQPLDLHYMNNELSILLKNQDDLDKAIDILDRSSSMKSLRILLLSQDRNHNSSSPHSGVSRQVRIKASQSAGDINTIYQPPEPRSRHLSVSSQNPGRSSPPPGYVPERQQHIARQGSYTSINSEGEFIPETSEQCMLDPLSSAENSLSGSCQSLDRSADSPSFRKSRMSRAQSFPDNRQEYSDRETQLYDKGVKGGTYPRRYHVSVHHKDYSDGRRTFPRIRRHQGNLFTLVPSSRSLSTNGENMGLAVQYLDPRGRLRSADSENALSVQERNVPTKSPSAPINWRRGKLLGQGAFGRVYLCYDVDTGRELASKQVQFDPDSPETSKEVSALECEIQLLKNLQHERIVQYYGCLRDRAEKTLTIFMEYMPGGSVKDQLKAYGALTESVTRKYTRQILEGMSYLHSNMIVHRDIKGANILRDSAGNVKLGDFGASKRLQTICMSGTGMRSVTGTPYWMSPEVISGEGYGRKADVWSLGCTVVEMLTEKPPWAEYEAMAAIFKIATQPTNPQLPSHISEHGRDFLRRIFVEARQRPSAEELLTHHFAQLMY
# [4] = molecular target: Mitogen-activated protein kinase kinase kinase kinase 1 (Homo sapiens, UniProt Q92918)
# TGF-beta receptor type-1 = molecular target: T3, TGF-beta receptor type-1 (Homo sapiens, UniProt P36897)
# T3 sequence (P36897 whole entry): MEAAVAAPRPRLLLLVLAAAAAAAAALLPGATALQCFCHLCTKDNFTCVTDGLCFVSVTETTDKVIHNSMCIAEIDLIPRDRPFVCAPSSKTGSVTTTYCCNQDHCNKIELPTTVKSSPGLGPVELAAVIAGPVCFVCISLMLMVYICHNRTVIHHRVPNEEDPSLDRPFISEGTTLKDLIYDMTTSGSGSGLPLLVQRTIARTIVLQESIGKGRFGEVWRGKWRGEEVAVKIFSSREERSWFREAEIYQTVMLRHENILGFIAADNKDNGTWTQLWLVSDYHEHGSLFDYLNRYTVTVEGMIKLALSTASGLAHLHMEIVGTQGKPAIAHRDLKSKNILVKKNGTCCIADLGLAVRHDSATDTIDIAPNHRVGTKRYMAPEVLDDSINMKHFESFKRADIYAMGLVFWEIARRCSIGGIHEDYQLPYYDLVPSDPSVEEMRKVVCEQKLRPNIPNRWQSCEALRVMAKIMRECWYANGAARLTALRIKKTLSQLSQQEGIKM
# [5] = molecular target: Serine/threonine-protein kinase N2 (Homo sapiens, UniProt Q16513)
# [6] = molecular target: Insulin-like growth factor 1 receptor (Homo sapiens, UniProt P08069)
# [7] = molecular target: T4, Serine/threonine-protein kinase Chk1 (Homo sapiens, UniProt O14757)
# T4 sequence (O14757 whole entry): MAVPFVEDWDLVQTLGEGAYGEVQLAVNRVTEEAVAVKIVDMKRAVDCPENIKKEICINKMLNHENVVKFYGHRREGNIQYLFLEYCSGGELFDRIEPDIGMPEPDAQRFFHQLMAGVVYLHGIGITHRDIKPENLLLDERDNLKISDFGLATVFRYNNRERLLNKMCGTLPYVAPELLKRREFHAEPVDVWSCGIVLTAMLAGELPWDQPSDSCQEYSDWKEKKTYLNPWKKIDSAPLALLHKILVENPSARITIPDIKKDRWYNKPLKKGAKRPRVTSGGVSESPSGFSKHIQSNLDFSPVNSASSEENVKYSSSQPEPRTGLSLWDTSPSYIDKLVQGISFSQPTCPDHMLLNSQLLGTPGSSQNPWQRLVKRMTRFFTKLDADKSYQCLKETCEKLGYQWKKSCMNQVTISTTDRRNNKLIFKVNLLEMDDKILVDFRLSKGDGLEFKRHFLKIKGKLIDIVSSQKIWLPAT
# [8] = molecular target: NADH dehydrogenase [ubiquinone] 1 alpha subcomplex subunit 13 (Homo sapiens, UniProt Q9P0J0)
# Chain of NADH dehydrogenase [ubiquinone] 1 alpha subcomplex subunit 13 (Q9P0J0 whole entry, one chain of several): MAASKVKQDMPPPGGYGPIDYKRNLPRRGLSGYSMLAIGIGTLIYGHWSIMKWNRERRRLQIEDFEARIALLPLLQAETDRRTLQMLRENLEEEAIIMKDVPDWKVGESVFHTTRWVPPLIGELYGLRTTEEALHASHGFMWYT
# Chain of Insulin-like growth factor 1 receptor (P08069 31-736 limits assumed): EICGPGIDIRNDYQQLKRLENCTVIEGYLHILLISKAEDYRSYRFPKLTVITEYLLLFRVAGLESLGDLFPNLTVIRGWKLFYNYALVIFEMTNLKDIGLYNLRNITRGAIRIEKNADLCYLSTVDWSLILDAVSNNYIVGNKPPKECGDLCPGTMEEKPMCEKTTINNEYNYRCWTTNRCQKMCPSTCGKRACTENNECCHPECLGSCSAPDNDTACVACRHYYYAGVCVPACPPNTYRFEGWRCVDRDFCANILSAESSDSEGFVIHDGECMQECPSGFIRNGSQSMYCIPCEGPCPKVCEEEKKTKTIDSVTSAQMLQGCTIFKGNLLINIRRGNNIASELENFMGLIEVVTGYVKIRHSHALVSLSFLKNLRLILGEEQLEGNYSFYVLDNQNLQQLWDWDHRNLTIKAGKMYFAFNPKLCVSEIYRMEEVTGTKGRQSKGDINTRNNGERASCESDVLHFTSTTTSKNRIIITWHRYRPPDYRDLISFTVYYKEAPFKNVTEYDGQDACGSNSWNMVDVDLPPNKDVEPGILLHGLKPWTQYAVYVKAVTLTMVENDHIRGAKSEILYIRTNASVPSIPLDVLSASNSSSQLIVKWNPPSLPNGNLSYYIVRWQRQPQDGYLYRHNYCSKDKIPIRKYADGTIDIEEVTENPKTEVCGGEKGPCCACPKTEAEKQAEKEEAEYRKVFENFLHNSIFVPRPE
# Chain of Insulin-like growth factor 1 receptor (P08069 741-1367 limits assumed): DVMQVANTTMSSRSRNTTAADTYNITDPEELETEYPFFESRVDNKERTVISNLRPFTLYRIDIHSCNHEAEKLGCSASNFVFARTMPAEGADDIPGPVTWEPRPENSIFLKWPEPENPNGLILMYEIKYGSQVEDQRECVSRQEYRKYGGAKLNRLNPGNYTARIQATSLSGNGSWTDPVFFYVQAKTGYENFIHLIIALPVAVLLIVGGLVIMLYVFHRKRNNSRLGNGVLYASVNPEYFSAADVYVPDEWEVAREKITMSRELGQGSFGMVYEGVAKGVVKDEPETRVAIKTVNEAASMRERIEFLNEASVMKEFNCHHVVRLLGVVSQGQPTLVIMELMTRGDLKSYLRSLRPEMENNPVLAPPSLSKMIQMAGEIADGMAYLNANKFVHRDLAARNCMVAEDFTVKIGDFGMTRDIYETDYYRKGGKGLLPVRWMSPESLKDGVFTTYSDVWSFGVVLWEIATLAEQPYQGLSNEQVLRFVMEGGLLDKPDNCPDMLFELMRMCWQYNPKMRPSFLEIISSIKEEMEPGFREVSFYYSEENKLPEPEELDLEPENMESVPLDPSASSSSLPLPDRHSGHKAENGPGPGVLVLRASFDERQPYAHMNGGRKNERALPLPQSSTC
# Chain of Mitogen-activated protein kinase kinase kinase kinase 1 (Q92918 whole entry): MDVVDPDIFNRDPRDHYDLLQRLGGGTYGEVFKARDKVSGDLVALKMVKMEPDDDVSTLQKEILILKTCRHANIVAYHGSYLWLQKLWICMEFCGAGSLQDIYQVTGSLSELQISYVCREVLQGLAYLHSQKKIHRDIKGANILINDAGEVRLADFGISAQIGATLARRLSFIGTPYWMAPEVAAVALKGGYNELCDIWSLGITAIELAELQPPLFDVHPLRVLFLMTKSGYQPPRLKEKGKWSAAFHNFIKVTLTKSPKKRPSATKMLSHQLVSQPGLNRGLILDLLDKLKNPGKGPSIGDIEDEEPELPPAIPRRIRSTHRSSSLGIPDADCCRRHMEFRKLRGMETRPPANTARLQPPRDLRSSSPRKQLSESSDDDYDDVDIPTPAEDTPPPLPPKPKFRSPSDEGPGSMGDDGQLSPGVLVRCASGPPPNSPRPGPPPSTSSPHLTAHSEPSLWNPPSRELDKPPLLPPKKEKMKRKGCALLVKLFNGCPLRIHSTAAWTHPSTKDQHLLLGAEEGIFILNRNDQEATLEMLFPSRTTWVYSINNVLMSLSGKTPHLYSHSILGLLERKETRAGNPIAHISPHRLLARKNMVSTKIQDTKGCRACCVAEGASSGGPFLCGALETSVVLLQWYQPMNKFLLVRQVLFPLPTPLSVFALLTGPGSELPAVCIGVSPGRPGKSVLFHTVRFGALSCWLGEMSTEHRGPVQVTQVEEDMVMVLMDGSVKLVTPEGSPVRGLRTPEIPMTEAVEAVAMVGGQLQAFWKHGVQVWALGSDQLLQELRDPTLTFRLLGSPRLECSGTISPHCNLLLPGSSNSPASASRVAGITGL
# Chain of Serine/threonine-protein kinase N2 (Q16513 whole entry): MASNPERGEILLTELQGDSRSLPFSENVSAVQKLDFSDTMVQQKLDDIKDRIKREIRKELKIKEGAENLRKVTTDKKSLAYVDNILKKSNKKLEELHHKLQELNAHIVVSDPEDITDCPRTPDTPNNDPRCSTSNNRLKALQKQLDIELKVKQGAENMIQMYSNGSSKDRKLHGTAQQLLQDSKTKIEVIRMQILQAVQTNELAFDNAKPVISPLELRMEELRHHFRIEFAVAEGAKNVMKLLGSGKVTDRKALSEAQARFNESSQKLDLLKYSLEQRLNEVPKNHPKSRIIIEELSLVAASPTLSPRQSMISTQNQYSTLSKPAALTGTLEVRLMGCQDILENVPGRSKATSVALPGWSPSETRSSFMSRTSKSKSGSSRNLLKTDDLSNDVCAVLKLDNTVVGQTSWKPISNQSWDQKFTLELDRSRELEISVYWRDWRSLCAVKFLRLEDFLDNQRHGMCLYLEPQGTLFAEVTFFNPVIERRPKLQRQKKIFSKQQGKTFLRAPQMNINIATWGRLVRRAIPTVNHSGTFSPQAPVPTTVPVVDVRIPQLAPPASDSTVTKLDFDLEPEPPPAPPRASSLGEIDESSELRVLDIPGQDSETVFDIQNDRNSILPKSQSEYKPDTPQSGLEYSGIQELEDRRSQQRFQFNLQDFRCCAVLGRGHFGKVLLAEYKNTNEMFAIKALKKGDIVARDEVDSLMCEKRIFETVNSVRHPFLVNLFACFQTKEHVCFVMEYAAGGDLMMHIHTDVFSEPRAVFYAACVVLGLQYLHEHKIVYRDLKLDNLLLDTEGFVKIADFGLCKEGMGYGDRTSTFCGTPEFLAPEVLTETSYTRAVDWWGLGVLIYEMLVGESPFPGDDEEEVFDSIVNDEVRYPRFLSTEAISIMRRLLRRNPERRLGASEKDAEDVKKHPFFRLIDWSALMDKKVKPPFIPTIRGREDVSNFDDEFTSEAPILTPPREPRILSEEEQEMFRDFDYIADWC
# Chain of TRAF2 and NCK-interacting protein kinase (Q9UKE5 whole entry): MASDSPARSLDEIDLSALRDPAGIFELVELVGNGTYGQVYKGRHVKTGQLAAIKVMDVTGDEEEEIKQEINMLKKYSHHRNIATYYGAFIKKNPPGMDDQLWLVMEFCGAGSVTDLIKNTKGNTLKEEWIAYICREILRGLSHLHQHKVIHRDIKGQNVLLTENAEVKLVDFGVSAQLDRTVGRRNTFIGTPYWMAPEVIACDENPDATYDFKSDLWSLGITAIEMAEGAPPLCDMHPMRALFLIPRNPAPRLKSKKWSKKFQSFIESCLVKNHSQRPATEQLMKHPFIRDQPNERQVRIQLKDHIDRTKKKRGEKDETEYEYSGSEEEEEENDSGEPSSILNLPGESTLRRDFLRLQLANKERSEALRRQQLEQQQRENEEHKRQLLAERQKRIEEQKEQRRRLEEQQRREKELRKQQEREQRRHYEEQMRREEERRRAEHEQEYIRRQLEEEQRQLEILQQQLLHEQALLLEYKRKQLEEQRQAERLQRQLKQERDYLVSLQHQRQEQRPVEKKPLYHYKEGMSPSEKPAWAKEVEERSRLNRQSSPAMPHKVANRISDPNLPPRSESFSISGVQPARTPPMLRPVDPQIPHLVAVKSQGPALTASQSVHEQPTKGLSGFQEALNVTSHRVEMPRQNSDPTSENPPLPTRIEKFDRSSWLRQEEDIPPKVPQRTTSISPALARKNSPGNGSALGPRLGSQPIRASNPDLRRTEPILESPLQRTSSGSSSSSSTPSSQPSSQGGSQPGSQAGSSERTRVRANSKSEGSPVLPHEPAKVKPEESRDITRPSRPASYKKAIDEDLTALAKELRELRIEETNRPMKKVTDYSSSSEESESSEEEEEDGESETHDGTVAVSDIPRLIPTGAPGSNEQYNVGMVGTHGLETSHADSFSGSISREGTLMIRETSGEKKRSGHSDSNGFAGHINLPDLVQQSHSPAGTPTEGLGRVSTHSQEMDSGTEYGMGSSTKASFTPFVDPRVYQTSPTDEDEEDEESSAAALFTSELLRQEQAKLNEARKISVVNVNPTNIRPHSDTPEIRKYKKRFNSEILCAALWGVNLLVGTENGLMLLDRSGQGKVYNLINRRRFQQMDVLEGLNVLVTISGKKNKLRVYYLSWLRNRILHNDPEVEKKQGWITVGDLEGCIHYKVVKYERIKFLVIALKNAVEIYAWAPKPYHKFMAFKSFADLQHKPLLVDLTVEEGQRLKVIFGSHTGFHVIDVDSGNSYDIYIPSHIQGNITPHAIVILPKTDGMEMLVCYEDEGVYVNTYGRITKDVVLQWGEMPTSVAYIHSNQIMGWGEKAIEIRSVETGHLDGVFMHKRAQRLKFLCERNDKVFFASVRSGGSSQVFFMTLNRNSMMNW
Structure (SMILES),Kd [1],Kd [3],Kd [4],Kd (TGF-beta receptor type-1),Kd [5],Kd [6],Kd [7],Kd [8],Kd [2]
C=CCN(/C=C1/C(=O)O[C@H](COC)[C@@]2(C)C1=C(O)C(=O)C1=C2[C@H](OC(C)=O)C[C@]2(C)C(=O)CC[C@@H]12)CC=C [SONOLISIB],> 30 µM (inactive),> 30 µM (inactive),> 30 µM (inactive),> 30 µM (inactive),> 30 µM (inactive),> 30 µM (inactive),> 30 µM (inactive),> 30 µM (inactive),> 30 µM (inactive)
Cc1ccc(C(=O)Nc2ccc(Oc3cc4cnn(C)c4cc3-c3cn[nH]c3)c(F)c2)c(=O)n1-c1ccc(F)cc1 [MERESTINIB],> 30 µM (inactive),> 30 µM (inactive),> 30 µM (inactive),> 30 µM (inactive),> 30 µM (inactive),> 30 µM (inactive),> 30 µM (inactive),> 30 µM (inactive),> 30 µM (inactive)
C=CC(=O)Nc1cc(Nc2nccc(-c3cn(C)c4ccccc34)n2)c(OC)cc1N(C)CCN(C)C [OSIMERTINIB],> 30 µM (inactive),> 30 µM (inactive),> 30 µM (inactive),> 30 µM (inactive),> 30 µM (inactive),> 30 µM (inactive),> 30 µM (inactive),> 30 µM (inactive),> 30 µM (inactive)
COc1cccc2cc(-c3nc([C@H]4CC[C@H](C(=O)O)CC4)n4ncnc(N)c34)[nH]c12 [OSI-027],> 30 µM (inactive),> 30 µM (inactive),> 30 µM (inactive),0.78 µM (active),> 30 µM (inactive),> 30 µM (inactive),> 30 µM (inactive),> 30 µM (inactive),> 30 µM (inactive)
CNC(=O)c1ccc(Nc2ncc(C(F)(F)F)c(NCc3nccnc3N(C)S(C)(=O)=O)n2)cc1 [DEFACTINIB],> 30 µM (inactive),> 30 µM (inactive),3.13 µM (active),> 30 µM (inactive),> 30 µM (inactive),> 30 µM (inactive),> 30 µM (inactive),> 30 µM (inactive),> 30 µM (inactive)
c1cc(OCCN2CCCCC2)cc(-c2n[nH]c3ccc(-c4nc[nH]n4)cc23)c1 [CC-401],2.34 µM (active),> 30 µM (inactive),> 30 µM (inactive),> 30 µM (inactive),> 30 µM (inactive),> 30 µM (inactive),> 30 µM (inactive),> 30 µM (inactive),> 30 µM (inactive)

# Continued, in another order:
Kd [1],Kd [3],Kd [4],Kd (TGF-beta receptor type-1),Kd [5],Kd [6],Kd [7],Kd [8],Structure (SMILES),Kd [2]
> 30 µM (inactive),> 30 µM (inactive),> 30 µM (inactive),> 30 µM (inactive),> 30 µM (inactive),> 30 µM (inactive),> 30 µM (inactive),> 30 µM (inactive),COc1cc2ncnc(Nc3ccc(O)cc3)c2cc1OC [WHI-P131],> 30 µM (inactive)
> 30 µM (inactive),> 30 µM (inactive),> 30 µM (inactive),> 30 µM (inactive),> 30 µM (inactive),> 30 µM (inactive),> 30 µM (inactive),> 30 µM (inactive),O[C@H]1CC[C@H](Nc2ncc3nc(Nc4c(F)cc(F)cc4F)n([C@H]4CCOC4)c3n2)CC1 [TANZISERTIB],> 30 µM (inactive)
> 30 µM (inactive),> 30 µM (inactive),> 30 µM (inactive),> 30 µM (inactive),> 30 µM (inactive),> 30 µM (inactive),> 30 µM (inactive),> 30 µM (inactive),Cc1cc(C(=O)Nc2cc(Oc3ccc4nc(NC(=O)C5CC5)cn4n3)ccc2C)n(C)n1 [TAK-593],> 30 µM (inactive)
> 30 µM (inactive),> 30 µM (inactive),> 30 µM (inactive),> 30 µM (inactive),> 30 µM (inactive),> 30 µM (inactive),> 30 µM (inactive),> 30 µM (inactive),NC(=O)c1ccc(N(C(N)=O)c2c(F)cccc2F)nc1-c1ccc(F)cc1F [VX-702],> 30 µM (inactive)
